Assay results taken from patent US9840478B2 (MERCK SHARP & DOHME CORP., priority 2013, dated 2017).
pIC50: −log10 of the molar value.

The compounds below were run on HIV-1 (H9IIIB strain) (assay: Cell-based HIV infection assay using a reporter (Cell-Based), MT4-GFP cells). Conditions: Human immunodeficiency virus 1, MT4-GFP cells infected with HIV-1 H9IIIB; 50% normal human serum; mean of at least two independent experiments; read-out: Cell-based IP.
In short: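 IC50 from 4-parameter dose-response of % viral growth inhibition, using the 48 h/24 h infected-cell ratio scaled between DMSO and a protease/integrase/NNRTI triple-drug control. Assay used MT4 cells with HIV-LTR-GFP reporter, pre-infected 24 h with HIV-1 H9IIIB, in 50% normal human serum.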

Compound | pIC50
C[C@H]1CNC[C@H](CCc2c(F)cccc2NC(=O)[C@@H](N)[C@@H](c2ccc(Cl)cc2)c2cc(F)cc(F)c2)N1S(C)(=O)=O [Example 198, (βS)-4-chloro-β-(3,5-difluorophenyl)-N-(3-fluoro-2-{2-[(2S,6S)-6-methyl-1-(methylsulfonyl)piperazin-2-yl]ethyl}phenyl)-L-phenylalaninamide] | 7.68
C[C@H]1CNC[C@H](CCc2c(F)cccc2NC(=O)[C@@H](N)[C@@H](c2ccc(Cl)cc2)c2cc(F)cc(F)c2)N1S(=O)(=O)C1CC1 [Example 199, (βS)-4-chloro-N-(2-{2-[(2S,6S)-1-(cyclopropylsulfonyl)-6-methylpiperazin-2-yl]ethyl}-3-fluorophenyl)-β-(3,5-difluorophenyl)-L-phenylalaninamide] | 7.70
COC(=O)N[C@H](C(=O)Nc1cccc(F)c1CC[C@H]1CNC[C@H](C)N1S(C)(=O)=O)[C@@H](c1ccc(Cl)cc1)c1cc(F)cc(F)c1 [Example 200, (βS)-4-chloro-β-(3,5-difluorophenyl)-N-(3-fluoro-2-{2-[(2S,6S)-6-methyl-1-(methylsulfonyl)piperazin-2-yl]ethyl}phenyl)-Nα-(methoxycarbonyl)-L-phenylalaninamide] | 7.80
COC(=O)N[C@H](C(=O)Nc1cccc(F)c1CC[C@H]1CNC[C@H](C)N1S(=O)(=O)C1CC1)[C@@H](c1ccc(Cl)cc1)c1cc(F)cc(F)c1 [Example 201, (βS)-4-chloro-N-(2-{2-[(2S,6S)-1-(cyclopropylsulfonyl)-6-methylpiperazin-2-yl]ethyl}-3-fluorophenyl)-β-(3,5-difluorophenyl)-Nα-(methoxycarbonyl)-L-phenylalaninamide] | 7.80
C[C@H]1CNC[C@H](CCc2c(F)cccc2NC(=O)[C@@H](N)[C@@H](Cc2ccc(F)cc2)c2ccc(Cl)cc2)N1S(C)(=O)=O [Example 202, (βS)-4-chloro-β-(4-fluorobenzyl)-N-(3-fluoro-2-{2-[(2S,6S)-6-methyl-1-(methylsulfonyl)piperazin-2-yl]ethyl}phenyl)-L-phenylalaninamide] | 6.21
C[C@@H]1CNC[C@H](CCc2c(F)cccc2NC(=O)[C@@H](N)[C@H](c2cccc(F)c2)c2cccc(Cl)c2)N1S(=O)(=O)C1CC1 [Example 203, (βR)-3-chloro-N-(2-{2-[(2S,6R)-1-(cyclopropylsulfonyl)-6-methylpiperazin-2-yl]ethyl}-3-fluorophenyl)-β-(3-fluorophenyl)-L-phenylalaninamide] | 6.21
C[C@@H]1CNC[C@H](CCc2c(F)cccc2NC(=O)[C@@H](N)[C@@H](c2ccc(Cl)cc2)c2cccc(F)c2)N1S(=O)(=O)C1CC1 [Example 204, (βS)-4-chloro-N-(2-{2-[(2S,6R)-1-(cyclopropylsulfonyl)-6-methylpiperazin-2-yl]ethyl}-3-fluorophenyl)-β-(3-fluorophenyl)-L-phenylalaninamide] | 7.10
CS(=O)(=O)N1[C@@H](CCc2c(F)cccc2NC(=O)[C@@H](N)[C@@H](c2ccc(F)cc2)c2cc(F)cc(F)c2)CNC[C@@H]1C1CC1 [Example 205, (βS)-N-(2-{2-[(2S,6S)-6-cyclopropyl-1-(methylsulfonyl)piperazin-2-yl]ethyl}-3-fluorophenyl)-β-(3,5-difluorophenyl)-4-fluoro-L-phenylalaninamide] | 7.66
CC(C)[C@H](c1cccc(Cl)c1)[C@H](N)C(=O)Nc1cccc(F)c1CC[C@H]1CNC[C@@H](C)N1S(=O)(=O)c1ccccc1 [Example 206, (βR)-3-chloro-N-(3-fluoro-2-{2-[(2S,6R)-6-methyl-1-(phenylsulfonyl)piperazin-2-yl]ethyl}phenyl)-β-(1-methylethyl)-L-phenylalaninamide] | 6.32
CC(C)[C@H](c1cccc(Cl)c1)[C@H](N)C(=O)Nc1cccc(F)c1CC[C@H]1CNC[C@H](C)N1S(=O)(=O)c1ccccc1 [Example 207, (βR)-3-chloro-N-(3-fluoro-2-{2-[(2S,6S)-6-methyl-1-(phenylsulfonyl)piperazin-2-yl]ethyl}phenyl)-β-(1-methylethyl)-L-phenylalaninamide] | 6.12
COC(=O)N[C@H](C(=O)Nc1cccc(F)c1CC[C@H]1CNC[C@@H](C)N1S(=O)(=O)c1ccccc1)[C@@H](c1cccc(Cl)c1)C(C)C [Example 208, (βR)-3-chloro-N-(3-fluoro-2-{2-[(2S,6R)-6-methyl-1-(phenylsulfonyl)piperazin-2-yl]ethyl}phenyl)-Nα-(methoxycarbonyl)-β-(1-methylethyl)-L-phenylalaninamide] | 7.38
COC(=O)N[C@H](C(=O)Nc1cccc(F)c1CC[C@H]1CNC[C@H](C)N1S(=O)(=O)c1ccccc1)[C@@H](c1cccc(Cl)c1)C(C)C [Example 209, (βR)-3-chloro-N-(3-fluoro-2-{2-[(2S,6S)-6-methyl-1-(phenylsulfonyl)piperazin-2-yl]ethyl}phenyl)-Nα-(methoxycarbonyl)-β-(1-methylethyl)-L-phenylalaninamide] | 7.11
COC(=O)N[C@H](C(=O)Nc1cncc(F)c1CC[C@H]1CNC[C@H](C)N1S(=O)(=O)C1CC1)[C@@H](c1ccc(F)cc1)c1cc(F)cc(F)c1 [Example 210, (βS)-N-(4-{2-[(2S,6S)-1-(cyclopropylsulfonyl)-6-methylpiperazin-2-yl]ethyl}-5-fluoropyridin-3-yl)-β-(3,5-difluorophenyl)-4-fluoro-Nα-(methoxycarbonyl)-L-phenylalaninamide] | 7.89
COC(=O)N[C@H](C(=O)Nc1cncc(F)c1CC[C@H]1CNC[C@@H](C)N1S(=O)(=O)C1CC1)[C@@H](c1ccc(F)cc1)c1cc(F)cc(F)c1 [Example 211, (βS)-N-(4-{2-[(2S,6R)-1-(cyclopropylsulfonyl)-6-methylpiperazin-2-yl]ethyl}-5-fluoropyridin-3-yl)-β-(3,5-difluorophenyl)-4-fluoro-Nα-(methoxycarbonyl)-L-phenylalaninamide] | 7.80
COC(=O)N[C@H](C(=O)Nc1cccc(F)c1CC[C@H]1CNC[C@H](C)N1S(=O)(=O)C1CC1)[C@@H](c1ccc(F)cc1)c1cc(F)cc(F)c1 [Example 212, (βS)-N-(2-{2-[(2S,6S)-1-(cyclopropylsulfonyl)-6-methylpiperazin-2-yl]ethyl}-3-fluorophenyl)-β-(3,5-difluorophenyl)-4-fluoro-Nα-(methoxycarbonyl)-L-phenylalaninamide] | 7.89
C[C@H]1CNC[C@H](CCc2c(F)cncc2NC(=O)[C@@H](N)[C@@H](c2ccc(Cl)cc2)c2cccc(F)c2)N1S(C)(=O)=O [Example 213, (βS)-4-chloro-N-(5-fluoro-4-{2-[(2S,6S)-6-methyl-1-(methylsulfonyl)piperazin-2-yl]ethyl}pyridin-3-yl)-β-(3-fluorophenyl)-L-phenylalaninamide] | 7.54
C[C@H]1CNC[C@H](CCc2c(F)cccc2NC(=O)[C@@H](N)[C@@H](c2ccc(F)cc2)c2cc(F)cc(F)c2)N1S(=O)(=O)c1ccc(OC(F)(F)F)cc1 [Example 214, (βS)-β-(3,5-difluorophenyl)-4-fluoro-N-(3-fluoro-2-{2-[(2S,6S)-6-methyl-1-{[4-(trifluoromethoxy)phenyl]sulfonyl}piperazin-2-yl]ethyl}phenyl)-L-phenylalaninamide] | 7.36
CC(C)[C@H](c1cccc(Cl)c1)[C@H](N)C(=O)Nc1cccc(F)c1CC[C@H]1CNC[C@H](C)N1S(=O)(=O)C1CC1 [Example 215, (βR)-3-chloro-N-(2-{2-[(2S,6S)-1-(cyclopropylsulfonyl)-6-methylpiperazin-2-yl]ethyl}-3-fluorophenyl)-β-(1-methylethyl)-L-phenylalaninamide] | 5.60
COC(=O)N[C@H](C(=O)Nc1cccc(F)c1CC[C@H]1CNC[C@H](C)N1S(=O)(=O)C1CC1)[C@@H](c1cccc(Cl)c1)C(C)C [Example 216, (βR)-3-chloro-N-(2-{2-[(2S,6S)-1-(cyclopropylsulfonyl)-6-methylpiperazin-2-yl]ethyl}-3-fluorophenyl)-Nα-(methoxycarbonyl)-β-(1-methylethyl)-L-phenylalaninamide] | 5.89
COC(=O)N[C@H](C(=O)Nc1cccc(F)c1CC[C@H]1CNC[C@@H](C)N1S(=O)(=O)C1CC1)[C@@H](c1cccc(Cl)c1)C(C)C [Example 217, (βR)-3-chloro-N-(2-{2-[(2S,6R)-1-(cyclopropylsulfonyl)-6-methylpiperazin-2-yl]ethyl}-3-fluorophenyl)-Nα-(methoxycarbonyl)-β-(1-methylethyl)-L-phenylalaninamide] | 5.74
C[C@H]1CNC[C@H](CCc2c(F)cccc2NC(=O)[C@@H](N)[C@H](c2cncc(F)c2)c2cccc(Cl)c2)N1S(=O)(=O)c1ccccc1 [Example 219, (βS)-3-chloro-N-(3-fluoro-2-{2-[(2S,6S)-6-methyl-1-(phenylsulfonyl)piperazin-2-yl]ethyl}phenyl)-β-(5-fluoropyridin-3-yl)-L-phenylalaninamide] | 7.60
C[C@H]1CNC[C@H](CCc2c(F)cccc2NC(=O)[C@@H](N)[C@@H](Cc2ccc(F)cc2)c2ccc(Cl)cc2)N1S(=O)(=O)c1ccc(OC(F)(F)F)cc1 [Example 220, (βS)-4-chloro-β-(4-fluorobenzyl)-N-(3-fluoro-2-{2-[(2S,6S)-6-methyl-1-{[4-(trifluoromethoxy)phenyl]sulfonyl}piperazin-2-yl]ethyl}phenyl)-L-phenylalaninamide] | 6.11

Same assay, conditions: MT4-GFP cells infected with HIV-1 H9IIIB; 50% normal human serum; mean of at least two independent experiments; read-out: Cell-based IP

Compound | pIC50
COCC1CNC[C@H](CCc2c(F)cccc2NC(=O)[C@@H](N)[C@@H](c2ccc(Cl)cc2)C2CCOCC2)N1S(C)(=O)=O (stereo partly drawn) [Example 218, (βR)-4-chloro-N-(3-fluoro-2-{2-[(2S)-6-(methoxymethyl)-1-(methylsulfonyl)piperazin-2-yl]ethyl}phenyl)-β-(tetrahydro-2H-pyran-4-yl)-L-phenylalaninamide] | 6.51
